Assay results published in patent US8980886B2, “Anthranilic acid derivatives” (Bayer Cropscience AG, priority 2010, dated 2015).
Like-named read-outs stand apart in the source and are kept apart here.

Legend:
[1] = logP by HPLC on reversed-phase columns (C 18), EEC Directive 79/831 Annex V.A8; type: physicochemical; settings: reversed-phase C 18, acidic range pH 2.7; for chromatographic logP: reversed-phase HPLC column (C 18), pH 2.7, HPLC
Protocol: The logP values reported in the table above and in the Preparation Examples were determined in accordance with EEC Directive 79/831 Annex V.A8 by HPLC (High Performance Liquid Chromatography) on reversed-phase columns (C 18), with the following methods: The LC-MS determination in the acidic range is carried out at pH 2.7 using the mobile phases 0.1% aqueous formic acid and acetonitrile (contains 0.1% formic acid), linear gradient from 10% acetonitrile to 95% acetonitrile Calibration was carried out using unbranched alkan-2-ones (having from 3 to 16 carbon atoms) with known logP values (the logP values were determined by the retention times using linear interpolation between two successive alkanones).

Tetranychus urticae = experiment: Tetranychus test, OP-resistant (TETRUR spray treatment); type: in vivo; settings: 100 g/ha, sprayed bean leaf discs, all stages, after 6 days
Protocol: Solvents: 78.0 parts by weight of acetone 1.5 parts by weight of dimethylformamide Emulsifier: 0.5 part by weight of alkylaryl polyglycol ether To produce a suitable preparation of active compound, 1 part by weight of active compound is mixed with the stated amount of solvents and emulsifier, and the concentrate is diluted with emulsifier-containing water to the desired concentration. Discs of bean leaves (Phaseolus vulgaris) which are infested by all stages of the greenhouse red spider mite (Tetranychus urticae) are sprayed with an active compound preparation of the desired concentration. After 6 days, the activity in % is determined. 100% means that all of the spider mites have been killed; 0% means that none of the spider mites have been killed.

Lucilia cuprina = Lucilia cuprina test (LUCICU); type: in vivo; settings: 48 h, treated horse meat, larvae, after 2 days, read-out: kill in %
Protocol: Solvent: dimethyl sulphoxide To produce a suitable preparation of active compound, 10 mg of active compound are mixed with 0.5 ml of dimethyl sulphoxide and the concentrate is diluted with water to the desired concentration. Vessels containing horse meat treated with the active compound preparation of the desired concentration are populated with about 20 Lucilia cuprina larvae. After 2 days, the kill in % is determined. 100% means that all of the larvae have been killed; 0% means that none of the larvae have been killed.

Phaedon cochleariae = experiment: Phaedon test (PHAECO spray treatment); type: in vivo; settings: 168 h, sprayed Chinese cabbage discs, after 7 days, read-out: activity in % (beetle larvae killed)
Protocol: (§1) Solvents: 78.0 parts by weight of acetone 1.5 parts by weight of dimethylformamide Emulsifier: 0.5 part by weight of alkylaryl polyglycol ether To produce a suitable preparation of active compound, 1 part by weight of active compound is mixed with the stated amount of solvents and emulsifier, and the concentrate is diluted with emulsifier-containing water to the desired concentration. Discs of Chinese cabbage (Brassica pekinensis) are sprayed with an active compound preparation of the desired concentration and, after drying, populated with larvae of the mustard beetle (Phaedon cochleariae). After 7 days, the activity in % is determined. 100% means that all beetle larvae have been killed; 0% means that none of the beetle larvae have been killed.

Spodoptera frugiperda = Spodoptera frugiperda test (SPODFR spray treatment); type: in vivo; settings: foliar, 168 h, sprayed maize leaf discs, after 7 days, read-out: effect in % (caterpillars killed)
Protocol: as §1, with “maize leaves (Zea mays)” for “Chinese cabbage (Brassica pekinensis)”, “caterpillars” for “larvae”, “armyworm (Spodoptera frugiperda).” for “mustard beetle (Phaedon cochleariae).”, “effect” for “activity”, “determined” for “determined.”, “caterpillars” for “beetle larvae”

Boophilus microplus = Boophilus microplus test (BOOPMI injection); type: in vivo; settings: 20 μg/animal, injection into the abdomen, after 7 days
Protocol: Solvent: dimethyl sulphoxide To produce a suitable preparation of active compound, 10 mg of active compound are mixed with 0.5 ml of solvent and the concentrate is diluted with solvent to the desired concentration. The active compound solution is injected into the abdomen (Boophilus microplus), and the animals are transferred into dishes and stored in a climate-controlled room. The activity is assessed by […] of fertile eggs. After 7 days, the effect in % is determined. 100% means that none of the ticks has laid any fertile eggs.

[2] = table of compounds, read-out: log P

Row | chromatographic logP [1, 2] | SMILES | pest or weed control at 100 g/ha (Phaedon cochleariae) [%] | pest or weed control at 100 g/ha (Spodoptera frugiperda) [%] | also measured
1 | 3.45 | Cc1cc(Br)cc(C(N)=O)c1NC(=O)c1sc(Cn2nnc(C(F)(F)F)n2)nc1-c1ccccc1Cl [Compound 3] | – | – | activity in % (spider mites killed) (Tetranychus urticae): 100%; pest or weed control at 100 ppm (Lucilia cuprina): 100%
2 | 4.75 | Cc1cc(Cl)cc(C(=O)NC(C)(C)C)c1NC(=O)c1nc(Cn2nnc(C(F)(F)F)n2)sc1-c1ccccc1Cl [Compound 8] | – | – | activity in % (spider mites killed) (Tetranychus urticae): 80%
3 | 3.63 | CNC(=O)c1cc(Cl)cc(C)c1NC(=O)c1sc(Cn2nnc(C(F)(F)F)n2)nc1-c1ccccc1Cl [Compound 10] | 100 | – | –
4 | 4.28 | Cc1cc(Br)cc(C(=O)NC(C)C)c1NC(=O)c1sc(Cn2nnc(C(F)(F)F)n2)nc1-c1ccccc1Cl [Compound 11] | 83 | 83 | –
5 | 3.73 | CNC(=O)c1cc(Br)cc(C)c1NC(=O)c1sc(Cn2nnc(C(F)(F)F)n2)nc1-c1ccccc1Cl [Compound 12] | 83 | – | –
6 | 3.34 | Cc1cc(Cl)cc(C(N)=O)c1NC(=O)c1sc(Cn2nnc(C(F)(F)F)n2)nc1-c1ccccc1Cl [Compound 13] | 100 | 100 | –
7 | 3.19 | CNC(=O)c1cc(C#N)cc(C)c1NC(=O)c1sc(Cn2nnc(C(F)(F)F)n2)nc1-c1ccccc1Cl [Compound 14] | – | 100 | –
8 | 3.7 | Cc1cc(C#N)cc(C(=O)NC(C)C)c1NC(=O)c1sc(Cn2nnc(C(F)(F)F)n2)nc1-c1ccccc1Cl [Compound 25] | 100 | 100 | –
9 | 4.69 | Cc1cc(Br)cc(C(=O)NC(C)(C)C)c1NC(=O)c1sc(Cn2nnc(C(F)(F)F)n2)nc1-c1ccccc1Cl [Compound 26] | 100 | 100 | –
10 | 4.59 | Cc1cc(Cl)cc(C(=O)NC(C)(C)C)c1NC(=O)c1sc(Cn2nnc(C(F)(F)F)n2)nc1-c1ccccc1Cl [Compound 27] | 100 | 100 | –
11 | 4.07 | Cc1cc(C#N)cc(C(=O)NC(C)(C)C)c1NC(=O)c1sc(Cn2nnc(C(F)(F)F)n2)nc1-c1ccccc1Cl [Compound 30] | 100 | 100 | –
12 | 2.78 | CNC(=O)c1cc(C#N)cc(C)c1NC(=O)c1cn(Cc2ccc(C(F)(F)F)nc2)nc1-c1ccccc1Cl [Compound 31] | – | 100 | log P ([1]; HPLC, table of compounds): 2.83
13 | 4.15 | Cc1cc(Cl)cc(C(=O)NC(C)C)c1NC(=O)c1sc(Cn2nnc(C(F)(F)F)n2)nc1-c1ccccc1Cl [Compound 32] | 100 | 100 | –
14 | 3.91 | Cc1cc(Cl)cc(C(=O)NC(C)C)c1NC(=O)c1cnc(Cn2nnc(C(F)(F)F)n2)nc1-c1ccccc1Cl [Compound 34] | 100 | 100 | effect in % (no fertile eggs laid) (Boophilus microplus): 100%; pest or weed control at 100 ppm (Lucilia cuprina): 100%
15 | 3.01 | Cc1cc(Cl)cc(C(N)=O)c1NC(=O)c1cnc(Cn2nnc(C(F)(F)F)n2)nc1-c1ccccc1Cl [Compound 35] | 100 | 100 | effect in % (no fertile eggs laid) (Boophilus microplus): 98%; pest or weed control at 100 ppm (Lucilia cuprina): 100%
16 | 3.31 | CNC(=O)c1cc(Cl)cc(C)c1NC(=O)c1cnc(Cn2nnc(C(F)(F)F)n2)nc1-c1ccccc1Cl [Compound 36] | 100 | 100 | –
17 | 2.93 | CNC(=O)c1cc(C#N)cc(C)c1NC(=O)c1cnc(Cn2nnc(C(F)(F)F)n2)nc1-c1ccccc1Cl [Compound 38] | 100 | 100 | effect in % (no fertile eggs laid) (Boophilus microplus): 100%; pest or weed control at 100 ppm (Lucilia cuprina): 100%
18 | 3.85 | Cc1cc(C#N)cc(C(=O)NC(C)(C)C)c1NC(=O)c1cnc(Cn2nnc(C(F)(F)F)n2)nc1-c1ccccc1Cl [Compound 39] | 100 | 100 | effect in % (no fertile eggs laid) (Boophilus microplus): 100%; pest or weed control at 100 ppm (Lucilia cuprina): 100%
19 | 2.69 | Cc1cc(C#N)cc(C(N)=O)c1NC(=O)c1cnc(Cn2nnc(C(F)(F)F)n2)nc1-c1ccccc1Cl [Compound 40] | 100 | 100 | effect in % (no fertile eggs laid) (Boophilus microplus): 100%; pest or weed control at 100 ppm (Lucilia cuprina): 100%
20 | 4.33 | Cc1cc(Cl)cc(C(=O)NC(C)(C)C)c1NC(=O)c1cnc(Cn2nnc(C(F)(F)F)n2)nc1-c1ccccc1Cl [Compound 41] | 100 | 100 | effect in % (no fertile eggs laid) (Boophilus microplus): 100%; pest or weed control at 100 ppm (Lucilia cuprina): 100%
21 | 4.09 | CNC(=O)c1cc(Cl)cc(C)c1NC(=O)c1cc(Cn2nnc(C(F)(F)C(F)(F)F)n2)cn1-c1ccccc1Cl [Compound 44] | 100 | 100 | –
22 | – | O=C(Cn1nnc(C(F)(F)F)n1)c1cc(C(=O)O)n(-c2ncccc2Cl)c1 [Example No. IV-3, 1-(3-chloropyridin-2-yl)-4-{[5-(trifluoromethyl)-2H-tetrazol-2-yl]acetyl}-1H-pyrrole-2-carboxylic acid] | – | – | chromatographic logP ([1]; Preparation Examples): 2.24
23 | – | O=C(O)c1sc(Cn2nnc(C(F)(F)F)n2)nc1-c1ccccc1Cl [Example No. X (IV-2), 4-(2-chlorophenyl)-2-{[5-(trifluoromethyl)-2H-tetrazol-2-yl]methyl}-1,3-thiazole-5-carboxylic acid] | – | – | chromatographic logP ([1]; Preparation Examples): 2.63
24 | – | COC(=O)c1sc(CBr)nc1-c1ccccc1Cl [Example No. XII, methyl 2-(bromomethyl)-4-(2-chlorophenyl)-1,3-thiazole-5-carboxylate] | – | – | chromatographic logP ([1]; Preparation Examples): 4.12
25 | – | COC(=O)c1sc(Cn2nnc(C(F)(F)F)n2)nc1-c1ccccc1Cl [Example No. XIII, methyl 4-(2-chlorophenyl)-2-{[5-(trifluoromethyl)-2H-tetrazol-2-yl]methyl}-1,3-thiazole-5-carboxylate] | – | – | chromatographic logP ([1]; Preparation Examples): 3.6
26 | – | COC(=O)c1cc(C(C)=O)cn1-c1ncccc1Cl [Example No. XV, methyl 4-acetyl-1-(3-chloropyridin-2-yl)-1H-pyrrole-2-carboxylate] | – | – | chromatographic logP ([1]; Preparation Examples): 1.74
27 | – | COC(=O)c1cc(C(=O)CBr)cn1-c1ncccc1Cl [Example No. XVI, methyl 4-(bromoacetyl)-1-(3-chloropyridin-2-yl)-1H-pyrrole-2-carboxylate] | – | – | chromatographic logP ([1]; Preparation Examples): 2.28
28 | – | COC(=O)c1cc(C(=O)Cn2nnc(C(F)(F)F)n2)cn1-c1ncccc1Cl [Example No. XVII, methyl 1-(3-chloropyridin-2-yl)-4-{[5-(trifluoromethyl)-2H-tetrazol-2-yl]acetyl}-1H-pyrrole-2-carboxylate] | – | – | chromatographic logP ([1]; Preparation Examples): 2.97
29 | – | CNC(=O)c1cc(Cl)cc(C)c1NC(=O)c1cnc(Cn2nnc(C(F)(F)F)n2)nc1-c1ccccc1Cl [N-[4-chloro-2-methyl-6-(methylcarbamoyl)phenyl]-4-(2-chlorophenyl)-2-{[5-(trifluoromethyl)-2H-tetrazol-2-yl]methyl}pyrimidine-5-carboxamide] | – | – | chromatographic logP ([1]; Preparation Examples): 3.13
